Data on 16 compounds can be found in ChEMBL document CHEMBL3351798, “Discovery of the CCR1 antagonist, BMS-817399, for the treatment of rheumatoid arthritis” (J Med Chem, 2014).

Data set [1] addresses T1, C-C chemokine receptor type 1 (Homo sapiens, UniProt P32246).
T1 sequence (P32246 whole entry): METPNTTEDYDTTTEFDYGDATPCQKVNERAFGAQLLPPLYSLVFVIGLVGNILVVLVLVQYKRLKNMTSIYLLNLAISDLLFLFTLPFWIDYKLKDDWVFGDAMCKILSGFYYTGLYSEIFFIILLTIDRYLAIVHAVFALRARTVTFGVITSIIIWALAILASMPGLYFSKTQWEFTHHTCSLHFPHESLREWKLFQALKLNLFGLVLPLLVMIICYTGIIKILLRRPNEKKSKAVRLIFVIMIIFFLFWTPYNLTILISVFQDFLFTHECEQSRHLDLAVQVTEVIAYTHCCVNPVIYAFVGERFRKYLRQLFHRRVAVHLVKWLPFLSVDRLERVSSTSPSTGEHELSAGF
Briefly: Displacement of [125I]MIP-1alpha from CCR1 in human THP1 cells. The format is cell-based, THP-1. For orientation: Displacement assays read how much labelled ligand stays bound in the presence of the test substance.

Data set [2] is described as follows: Metabolic stability in mouse liver microsomes assessed as compound remaining at 3 uM after 60 mins by UV-LC/MS analysis. The format is ADME. Particulars: read-out: Stability.
Data set [3] is described as follows: Metabolic stability in human liver microsomes assessed as compound remaining at 3 uM after 60 mins by UV-LC/MS analysis. The format is ADME. As to conditions: read-out: Stability. For orientation: Microsomes from liver hold many membrane-bound enzymes, among them those of drug oxidation.
The target in data set [4] is T2, Nuclear receptor subfamily 1 group I member 2 (Homo sapiens, UniProt O75469).
T2 sequence (O75469 whole entry): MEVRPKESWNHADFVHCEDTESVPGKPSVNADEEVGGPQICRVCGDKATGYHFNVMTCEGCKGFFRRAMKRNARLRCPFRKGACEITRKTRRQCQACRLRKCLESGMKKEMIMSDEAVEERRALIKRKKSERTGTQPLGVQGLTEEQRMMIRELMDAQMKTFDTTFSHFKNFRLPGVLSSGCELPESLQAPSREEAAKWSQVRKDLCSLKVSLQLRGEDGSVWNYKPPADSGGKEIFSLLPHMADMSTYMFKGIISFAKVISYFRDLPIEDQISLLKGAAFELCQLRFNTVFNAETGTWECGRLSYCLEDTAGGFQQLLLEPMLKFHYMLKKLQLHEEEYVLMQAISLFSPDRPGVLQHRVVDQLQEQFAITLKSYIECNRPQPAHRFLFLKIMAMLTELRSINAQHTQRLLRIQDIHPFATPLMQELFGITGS
Put plainly: Transactivation of human full-length PXR transfected in human HepG2 cells after 24 hrs by luciferase reporter gene assay. The format is cell-based. Particulars: for EC20: human, hepg2, 24 h. (In general: A reporter such as luciferase makes a cellular process visible.)

Data set [5] can be described thus: Metabolic stability in rat liver microsomes assessed as compound remaining at 3 uM after 60 mins by UV-LC/MS analysis. The format is ADME. As to conditions: read-out: Stability.
The nature of data set [6]: Metabolic stability in mouse liver microsomes assessed as compound remaining at 0.5 uM after 60 mins by UV-LC/MS analysis. The format is ADME. Particulars: read-out: Stability.
Data set [7] in a line: Metabolic stability in human liver microsomes assessed as compound remaining at 0.5 uM after 60 mins by UV-LC/MS analysis. As to conditions: read-out: Stability. The format is ADME.
A short description of data set [8]: Metabolic stability in rat liver microsomes assessed as compound remaining at 0.5 uM after 60 mins by UV-LC/MS analysis. The format is ADME. As to conditions: read-out: Stability.

The IC50 is the concentration at which inhibition is half-maximal. The low end stands for higher potency, the high end for lower potency. Take `CC(C)[C@@H](NC(=O)C[C@H](C)O)C(=O)N1CC[C@](O)(c2ccc(Cl)cc2)C(C)(C)C1`: the IC50 in data set [1] was found to be 11 nM. That is a double-digit nanomolar value.
In general, EC20 refers to the point of the concentration-response curve where the effect stands at 20%. The low end stands for greater potency, the high end for weaker potency. `CC[C@@H](C)NC(=O)N[C@@H](C(=O)N1CC[C@](O)(c2ccc(Cl)cc2)C(C)(C)C1)C(C)C` registered an IC50 in data set [1] of 3 nM. Besides, the figures for the remaining at 1 h, 3 µM in data set [2], in data set [3] and in data set [5] were 72%, 59% and 85%, respectively. This compound also gave an EC20 in data set [4] of 5.2 µM.
What is called EC50 is the concentration at which the effect is half-maximal. In data set [1], `CC(C)[C@@H](NC(=O)CCC(C)(C)O)C(=O)N1CC[C@](O)(c2ccc(Cl)cc2)C(C)(C)C1` came in with an IC50 of 2 nM. The remaining at 1 h, 0.5 µM in data set [6] worked out at 74%; in data set [7], 91%; in data set [8], 35%. The compound further came in with an EC50 in data set [4] of 25 µM.
For `CC(C)[C@@H](NC(=O)CC(C)(C)O)C(=O)N1CC[C@](O)(c2ccc(Cl)cc2)C(C)(C)C1`, the IC50 in data set [1] came out at 3 nM. Further, the remaining at 1 h, 3 µM in data set [2] turned out to be 100%; in data set [3] it was 100%; in data set [5], 84%. Also, it took 2.3 µM to reach a half-maximal effect in data set [4] (EC50).
Regarding `CC(C)[C@@H](NC(=O)Nc1ccccc1)C(=O)N1CC[C@](O)(c2ccc(Cl)cc2)C(C)(C)C1`, the IC50 in data set [1] is 20 nM. That is a double-digit nanomolar value.
For the compound `CC(C)[C@@H](NC(=O)NC[C@@H](C)O)C(=O)N1CC[C@](O)(c2ccc(Cl)cc2)C(C)(C)C1`, the IC50 in data set [1] is 2 nM. For the same compound, the remaining at 1 h, 0.5 µM was found to be 86% in data set [6], 88% in data set [7] and 78% in data set [8]. For the same compound, the EC50 in data set [4] was over 25 µM.
Consider `CC[C@H](C)NC(=O)N[C@@H](C(=O)N1CC[C@](O)(c2ccc(Cl)cc2)C(C)(C)C1)C(C)C`, for which, in data set [1], the IC50 was determined as 2 nM. Further, the remaining at 1 h, 3 µM in data set [2] was found to be 87%; in data set [3], 65%; in data set [5], 89%. For the same compound, in data set [4], the concentration for an effect of 20% (EC20) amounted to 8.7 µM.
In the same order, the values of `CC(C)[C@@H](NC(=O)NC1CCCC1)C(=O)N1CC[C@](O)(c2ccc(Cl)cc2)C(C)(C)C1` are 2 nM, 68%, 77%, 57% and 7.1 µM.
In the case of `CC(C)[C@@H](NC(=O)C[C@@H](C)O)C(=O)N1CC[C@](O)(c2ccc(Cl)cc2)C(C)(C)C1`, in data set [1], the 50% inhibitory concentration (IC50) was 2 nM. The remaining at 1 h, 3 µM in data set [2] came to 85%; in data set [3], 87%; in data set [5], 79%. Further, the EC50 in data set [4] was found to be 7.8 µM.
Taken in the same sequence, the figures for `CC(C)[C@@H](NC(=O)N[C@H]1CC[C@@H](O)C1)C(=O)N1CC[C@](O)(c2ccc(Cl)cc2)C(C)(C)C1` were 3 nM, 100%, 92%, 83% and 19 µM.
In the same order, the values of `CC(C)[C@@H](NC(=O)N[C@@H]1CC[C@@H](O)C1)C(=O)N1CC[C@](O)(c2ccc(Cl)cc2)C(C)(C)C1` are 4 nM, 100%, 100%, 84% and over 50 µM.
For the compound `CC(C)[C@@H](NC(=O)NC[C@H](C)O)C(=O)N1CC[C@](O)(c2ccc(Cl)cc2)C(C)(C)C1`, the half-maximal inhibitory concentration (IC50) in data set [1] worked out at 2 nM. For the same compound, the remaining at 1 h, 0.5 µM worked out at 95% in data set [6], 88% in data set [7] and 79% in data set [8]. In data set [4], this compound showed an EC50 of over 25 µM.
In data set [1], `CC(C)[C@@H](NC(=O)N1CCCC1)C(=O)N1CC[C@](O)(c2ccc(Cl)cc2)C(C)(C)C1` showed an IC50 of 9 nM. Further, the remaining at 1 h, 3 µM in data set [2] was 19%; in data set [3], 2%; in data set [5], 11%. In data set [4], this compound returned an EC20 of 0.8 µM.
Compound `CC(C)[C@@H](NC(=O)N[C@H]1CC[C@H](O)C1)C(=O)N1CC[C@](O)(c2ccc(Cl)cc2)C(C)(C)C1` registered an IC50 in data set [1] of 3 nM. Further, the values for the remaining at 1 h, 3 µM in data set [2], in data set [3] and in data set [5] were 100%, 99% and 96%, respectively. Further, in data set [4], it took 5.7 µM to reach a half-maximal effect (EC50).
In the same order, the values of `CC(C)[C@@H](NC(=O)N[C@@H]1CC[C@H](O)C1)C(=O)N1CC[C@](O)(c2ccc(Cl)cc2)C(C)(C)C1` are 2 nM, 86%, 76%, 75% and over 50 µM.
`CC(C)[C@@H](NC(=O)NCc1ccccc1)C(=O)N1CC[C@](O)(c2ccc(Cl)cc2)C(C)(C)C1` had an IC50 in data set [1] of 1 nM. Further, the remaining at 1 h, 3 µM in data set [2] came to 2%; in data set [3], 3%; in data set [5] it was 1%. In data set [4], the EC20 stood at 2.2 µM.
